For the experiment, the system named is Mus musculus. The experiment can be described thus: Analgesic activity was determined after subcutaneous administration in mice using Eddy hot plate assay or Nilsen assay. The experiment is classed as functional. The settings on record: sc.
Regarding `COc1cccc(C23CCCN(C)C(CC2)C3)c1.O=C(O)C(=O)O` (stereo not drawn), the ED50 amounted to 5.7 mg/kg.
The result for `CN1CCCC2(c3ccccc3)CCC1C2.O=C(O)C(=O)O` (stereo not drawn) reads 11.7 mg/kg; that for `Br.CN1CCCC2(c3cccc(O)c3)CCC1C2` (stereo not drawn), 16.2 mg/kg.
On to `Br.Oc1cccc(C23CCCN(CCc4ccccc4)C(CC2)C3)c1` (stereo not drawn), for which the ED50 was determined as 4.5 mg/kg.
For `Br.C=CCN1CCCC2(c3cccc(OC)c3)CCC1C2` (stereo not drawn), the ED50 is 20 mg/kg.
With `Br.COc1cccc(C23CCCNC(CC2)C3)c1` (stereo not drawn) the figure was 4 mg/kg; with `Br.COc1cccc(C23CCCN(CCc4ccccc4)C(CC2)C3)c1` (stereo not drawn), 10.9 mg/kg.
The result for `COc1ccc2c3c1O[C@H]1[C@@H](O)C=C[C@H]4[C@@H](C2)N(C)CC[C@@]341.COc1ccc2c3c1O[C@H]1[C@@H](O)C=C[C@H]4[C@@H](C2)N(C)CC[C@@]341.O.O=P(O)(O)O.O=P(O)(O)O` [CODEINE PHOSPHATE] reads 6.8 mg/kg.

The record behind these values is ChEMBL document CHEMBL1121990, “Synthesis and pharmacological activity of 6-aryl-2-azabicyclo[4.2.1]nonanes” (1982).
